Measured values as given in patent US12338243B2, “P2X7 modulators” (JANSSEN PHARMACEUTICA NV, priority 2014, dated 2025).

Assays:
P2X7 [1] = biological target: T1, P2X7 (Homo sapiens, UniProt Q99572); experiment: Ca2+ flux (FLIPR) in 1321N1 cells expressing recombinant human P2X7 channel; assay type: cell-based; parameters: expressed in transfected cells; host or cells: 1321N1 cells; settings: 250 μM BzATP
T1 sequence (Q99572 1-595): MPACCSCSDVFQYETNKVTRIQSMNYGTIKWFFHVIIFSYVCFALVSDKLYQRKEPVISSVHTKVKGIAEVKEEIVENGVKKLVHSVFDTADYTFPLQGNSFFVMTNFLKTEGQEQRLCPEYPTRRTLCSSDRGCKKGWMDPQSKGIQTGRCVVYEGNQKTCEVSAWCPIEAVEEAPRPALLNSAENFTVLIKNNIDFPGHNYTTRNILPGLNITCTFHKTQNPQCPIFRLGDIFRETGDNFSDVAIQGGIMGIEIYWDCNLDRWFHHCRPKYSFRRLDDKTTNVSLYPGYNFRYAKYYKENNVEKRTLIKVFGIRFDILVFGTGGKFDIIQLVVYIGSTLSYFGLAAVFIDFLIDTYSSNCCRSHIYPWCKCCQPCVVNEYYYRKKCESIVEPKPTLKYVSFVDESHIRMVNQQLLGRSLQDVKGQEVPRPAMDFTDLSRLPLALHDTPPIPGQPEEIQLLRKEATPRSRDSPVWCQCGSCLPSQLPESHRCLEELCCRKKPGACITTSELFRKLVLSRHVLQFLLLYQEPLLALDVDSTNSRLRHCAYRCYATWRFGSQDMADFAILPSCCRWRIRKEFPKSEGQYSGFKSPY
Protocol: P2X7 Antagonism in Recombinant Human P2X7 Cells or Recombinant Rat P2X7 Cells: (a) Ca^2+ Flux and (b) Radioligand Binding
(a) Ca^2+ flux: 1321N1 cells expressing the recombinant human or rat P2X7 channel was cultured in HyQ DME/(HyClone/Dulbecco's Modified Eagle Medium) high glucose supplemented with 10% Fetal Bovine Serum (FBS) and appropriate selection marker. Cells were seeded at a density of 25000 cells/well (96-well clear bottom black walled plates) in 100 μl volume/well. On the day of the experiment, cell plates were washed with assay buffer, containing (in mM): 130 NaCl, 2 KCl, 1 CaCl2), 1 MgCl2, 10 HEPES, 5 glucose; pH 7.40 and 300 mOs. After the wash, cells were loaded with the Calcium-4 dye (Molecular Device) and incubated in the dark for 60 minutes. Test compounds were prepared at 250× the test concentration in neat DMSO. Intermediate 96-well compound plates were prepared by transferring 1.2 μL of the compound into 300 μL of assay buffer. A further 3× dilution occurred when transferring 50 μL/well of the compound plate to 100 μL/well in the cell plate. Cells were incubated with test compounds and dye for 30 minutes. […] The fluorescence change was measured 180 seconds after adding the agonist.

P2X7 [2] = biological target: T1, P2X7; experiment: Radioligand binding, human P2X7-1321N1 cell membranes, tritiated A-804598
rat P2X7 [3] = biological target: T2, rat P2X7 (Rattus norvegicus, UniProt Q64663); experiment: Ca2+ flux (FLIPR) in 1321N1 cells expressing recombinant rat P2X7 channel; settings: FLIPR (rat) IC50 (μM), 250 μM BzATP
T2 sequence (Q64663 1-595): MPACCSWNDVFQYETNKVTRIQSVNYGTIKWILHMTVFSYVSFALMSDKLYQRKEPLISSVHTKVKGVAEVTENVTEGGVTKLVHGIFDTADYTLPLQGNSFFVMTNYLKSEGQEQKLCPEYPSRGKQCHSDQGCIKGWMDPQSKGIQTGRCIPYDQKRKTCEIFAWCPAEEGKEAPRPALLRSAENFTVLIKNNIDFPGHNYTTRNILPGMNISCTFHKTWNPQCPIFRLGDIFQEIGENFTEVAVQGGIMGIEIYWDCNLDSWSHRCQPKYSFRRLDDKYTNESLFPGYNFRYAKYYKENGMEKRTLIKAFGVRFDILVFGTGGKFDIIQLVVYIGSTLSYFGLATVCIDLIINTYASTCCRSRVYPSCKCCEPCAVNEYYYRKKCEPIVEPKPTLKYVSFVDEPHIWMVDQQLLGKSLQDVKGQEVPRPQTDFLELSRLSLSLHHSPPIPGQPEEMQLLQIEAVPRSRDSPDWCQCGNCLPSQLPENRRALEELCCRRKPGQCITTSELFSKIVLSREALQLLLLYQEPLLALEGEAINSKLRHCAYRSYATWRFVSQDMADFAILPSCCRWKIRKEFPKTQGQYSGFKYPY

rat P2X7 [4] = biological target: T2, rat P2X7; experiment: Radioligand binding, rat P2X7-1321N1 cell membranes, tritiated A-804598

IC50 (P2X7 [1])	Ki (P2X7 [2])	IC50 (rat P2X7 [3])	Ki (rat P2X7 [4])	SMILES
0.0301 µM	0.0398 µM	1.02 µM	–	Cc1nnc2n1CCN(C(=O)c1cccc(C(F)(F)F)c1Cl)C2c1ccccn1 (racemic) [Example 85, (±)-(2-chloro-3-(trifluoromethyl)phenyl)(3-methyl-8-(pyridin-2-yl)-5,6-dihydro-[1,2,4]triazolo[4,3-a]pyrazin-7(8H)-yl)methanone]
0.0119 µM	0.02 µM	0.964 µM	–	O=C(c1cccc(Cl)c1Cl)N1CCn2c(nnc2C(F)(F)F)C1c1ccccc1 (racemic) [Example 90, (±)-(2,3-dichlorophenyl)(8-phenyl-3-(trifluoromethyl)-5,6-dihydro-[1,2,4]triazolo[4,3-a]pyrazin-7(8H)-yl)methanone]
0.0278 µM	0.0316 µM	5.06 µM	–	Cc1nnc2n1CCN(C(=O)c1cccc(C(F)(F)F)c1Cl)C2c1ccc(F)cc1 (racemic) [Example 101, (±)-(2-chloro-3-(trifluoromethyl)phenyl)(8-(4-fluorophenyl)-3-methyl-5,6-dihydro-[1,2,4]triazolo[4,3-a]pyrazin-7(8H)-yl)methanone]
0.483 µM	0.316 µM	2.05 µM	–	Cc1nnc2n1CCN(C(=O)c1cccc(C(F)(F)F)c1Cl)[C@@H]2c1ccccc1 [Example 67, (R)-(2-chloro-3-(trifluoromethyl)phenyl)(3-methyl-8-phenyl-5,6-dihydro-[1,2,4]triazolo[4,3-a]pyrazin-7(8H)-yl)methanone]
0.0025 µM	0.02 µM	0.0031 µM	–	O=C(c1cccc(C(F)(F)F)c1Cl)N1CCn2c(-c3ccco3)nnc2[C@@H]1c1ccccc1 [Example 84, (S)-(2-chloro-3-(trifluoromethyl)phenyl)(3-(furan-2-yl)-8-phenyl-5,6-dihydro-[1,2,4]triazolo[4,3-a]pyrazin-7(8H)-yl)methanone]
0.0075 µM	0.0316 µM	2.13 µM	–	Cc1nnc2n1CCN(C(=O)c1cccc(C(F)(F)F)c1Cl)[C@@H]2c1ccccn1 [Example 91, (R)-(2-chloro-3-(trifluoromethyl)phenyl)(3-methyl-8-(pyridin-2-yl)-5,6-dihydro-[1,2,4]triazolo[4,3-a]pyrazin-7(8H)-yl)methanone]
0.008 µM	0.01 µM	0.623 µM	–	Cc1nnc2n1CCN(C(=O)c1cccc(C(F)(F)F)c1Cl)[C@H]2c1ccc(F)cc1 [Example 115, (S)-(2-chloro-3-(trifluoromethyl)phenyl)(8-(4-fluorophenyl)-3-methyl-5,6-dihydro-[1,2,4]triazolo[4,3-a]pyrazin-7(8H)-yl)methanone]
0.0098 µM	0.01 µM	0.262 µM	–	Cc1c(C(=O)N2CCn3c(nnc3C(F)(F)F)[C@H]2c2ccccc2)cccc1C(F)(F)F [Example 122, (R)-(2-methyl-3-(trifluoromethyl)phenyl)(8-phenyl-3-(trifluoromethyl)-5,6-dihydro-[1,2,4]triazolo[4,3-a]pyrazin-7(8H)-yl)methanone]
0.0685 µM	0.0501 µM	0.291 µM	–	O=C(c1cccc(C(F)(F)F)c1F)N1CCn2c(nnc2C(F)(F)F)[C@H]1c1ccccc1 [Example 128, (R)-(2-fluoro-3-(trifluoromethyl)phenyl)(8-phenyl-3-(trifluoromethyl)-5,6-dihydro-[1,2,4]triazolo[4,3-a]pyrazin-7(8H)-yl)methanone]

The remaining lines, values behind:

SMILES	IC50 (P2X7 [1])	Ki (P2X7 [2])	IC50 (rat P2X7 [3])	Ki (rat P2X7 [4])
O=C(c1cccc(C(F)(F)F)c1Cl)N1CCn2c(nnc2C(F)(F)F)C1c1cccnc1 (racemic) [Example 127, (±)-(2-chloro-3-(trifluoromethyl)phenyl)(8-(pyridin-3-yl)-3-(trifluoromethyl)-5,6-dihydro-[1,2,4]triazolo[4,3-a]pyrazin-7(8H)-yl)methanone]	0.255 µM	0.126 µM	28.2 µM	–
C[C@@H]1c2nnc(-c3ccccn3)n2CCN1C(=O)c1cccc(Cl)c1Cl (single isomer, unassigned) [Example 2]	–	–	0.815 µM	0.0093 µM
C[C@H]1c2nnc(-c3ccccn3)n2CCN1C(=O)c1cccc(Cl)c1Cl (single isomer, unassigned) [Example 3]	–	–	> 10 µM	1.78 µM
CC1c2nnc(-c3ccccn3)n2CCN1C(=O)c1ccnc(C(F)(F)F)c1Cl (stereo not shown) [Example 16, (3-chloro-2-(trifluoromethyl)pyridin-4-yl)(8-methyl-3-(pyridin-2-yl)-5,6-dihydro-[1,2,4]triazolo[4,3-a]pyrazin-7(8H)-yl)methanone]	0.0195 µM	0.1 µM	0.0177 µM	–
CC1c2nnc(-c3ccc(Cl)cc3)n2CCN1C(=O)c1cccc(C(F)(F)F)c1Cl (stereo not shown) [Example 37, (2-chloro-3-(trifluoromethyl)phenyl)(3-(4-chlorophenyl)-8-methyl-5,6-dihydro-[1,2,4]triazolo[4,3-a]pyrazin-7(8H)-yl)methanone]	0.172 µM	0.251 µM	4.59 µM	–
Cc1nnc2n1CCN(C(=O)c1cccc(Cl)c1Cl)[C@H]2c1ccc(F)cc1 [Example 105, (S)-(2,3-dichlorophenyl)(8-(4-fluorophenyl)-3-methyl-5,6-dihydro-[1,2,4]triazolo[4,3-a]pyrazin-7(8H)-yl)methanone]	0.0986 µM	0.0219 µM	9.95 µM	–
O=C(c1cccc(C(F)(F)F)c1Cl)N1CCn2c(C3CC3)nnc2[C@@H]1c1ccc(F)cc1 [Example 107, (S)-(2-chloro-3-(trifluoromethyl)phenyl)(3-cyclopropyl-8-(4-fluorophenyl)-5,6-dihydro-[1,2,4]triazolo[4,3-a]pyrazin-7(8H)-yl)methanone]	0.0128 µM	0.01 µM	0.178 µM	–
Cc1nnc2n1CCN(C(=O)c1cccc(Cl)c1Cl)[C@@H]2c1ccccn1 [Example 112, (R)-(2,3-dichlorophenyl)(3-methyl-8-(pyridin-2-yl)-5,6-dihydro-[1,2,4]triazolo[4,3-a]pyrazin-7(8H)-yl)methanone]	0.134 µM	0.0447 µM	2.82 µM	–
Cc1c(C(=O)N2CCn3c(C)nnc3[C@@H]2c2ccc(F)cc2)cccc1C(F)(F)F [Example 117, (S)-(8-(4-fluorophenyl)-3-methyl-5,6-dihydro-[1,2,4]triazolo[4,3-a]pyrazin-7(8H)-yl)(2-methyl-3-(trifluoromethyl)phenyl)methanone]	0.064 µM	0.02 µM	7.03 µM	–
O=C(c1ccc(Cl)cc1Cl)N1CCn2c(nnc2C(F)(F)F)[C@H]1c1ccccc1 [Example 120, (R)-(2,4-dichlorophenyl)(8-phenyl-3-(trifluoromethyl)-5,6-dihydro-[1,2,4]triazolo[4,3-a]pyrazin-7(8H)-yl)methanone]	0.476 µM	0.0501 µM	> 10 µM	–
O=C(c1ccc(F)c(Cl)c1Cl)N1CCn2c(nnc2C(F)(F)F)[C@H]1c1ccccc1 [Example 124, (R)-(2,3-dichloro-4-fluorophenyl)(8-phenyl-3-(trifluoromethyl)-5,6-dihydro-[1,2,4]triazolo[4,3-a]pyrazin-7(8H)-yl)methanone]	0.0106 µM	0.0079 µM	0.288 µM	–
